Where “and” joins values, the source holds several entries; their conditions need not be identical. Identical values can stand only once. Like-named read-outs stand apart in the source and are kept apart here.
Assays:
[1] = system: TMD8 C481S cells; assay: Cell viability assay (CellTiter-Glo), TMD8 C481S cells; conditions: for EC50: Homo sapiens, TMD8, 72 h; for EMAX (% viable cells): TMD8 C481S cells, treatment time 72 h
[2] = system: TMD8 cells; assay: Cell viability assay (CellTiter-Glo), TMD8 cells; conditions: for EC50: Homo sapiens, TMD8, 72 h; for EMAX (% viable cells): TMD8 cells, treatment time 72 h
[3] = biological target: BTK (Homo sapiens, UniProt Q06187); assay: BTK degradation (Total BTK HTRF) in Mino cells (Mantle Cell Lymphoma model); format: cell-based; set-up: endogenous in cells; host or cells: TMD8, Mino, Rec-1; conditions: treatment time 4 h
Sequence of BTK (Q06187 whole entry): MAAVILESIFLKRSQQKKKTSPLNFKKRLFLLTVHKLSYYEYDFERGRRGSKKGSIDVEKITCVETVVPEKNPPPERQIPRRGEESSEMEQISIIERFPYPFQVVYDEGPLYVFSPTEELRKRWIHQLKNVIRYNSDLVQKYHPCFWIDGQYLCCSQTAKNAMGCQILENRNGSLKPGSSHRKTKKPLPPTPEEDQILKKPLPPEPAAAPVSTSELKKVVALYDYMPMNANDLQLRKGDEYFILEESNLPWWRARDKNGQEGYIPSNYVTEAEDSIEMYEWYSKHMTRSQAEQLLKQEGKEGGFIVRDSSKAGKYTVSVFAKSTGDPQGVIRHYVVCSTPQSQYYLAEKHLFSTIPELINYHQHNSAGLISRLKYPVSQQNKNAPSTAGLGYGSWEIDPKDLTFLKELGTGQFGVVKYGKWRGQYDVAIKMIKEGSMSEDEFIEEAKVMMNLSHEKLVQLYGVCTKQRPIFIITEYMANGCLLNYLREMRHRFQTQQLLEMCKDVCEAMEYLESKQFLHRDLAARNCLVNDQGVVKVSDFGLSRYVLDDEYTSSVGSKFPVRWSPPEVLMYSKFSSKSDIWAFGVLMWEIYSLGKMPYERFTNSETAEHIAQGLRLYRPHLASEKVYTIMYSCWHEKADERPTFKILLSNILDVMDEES
Protocol: BTK levels were determined using Cisbio Total-BTK HTRF (Homologous Time-Resolved Fluorescence) kit (63ADK064PEG) according to the manufacturer's protocol. Briefly, cells were incubated in 1× supplied lysis buffer for 30 minutes. In an opaque white low volume 96-well plate (Cisbio, 66PL96005), cell lysate was combined with two different specific BTK antibodies, one conjugated with Eu^3+-Cryptate FRET donor and one conjugated with d2 FRET acceptor. Assay controls include wells containing cell lysate with only the Eu^3+-Cryptate FRET donor antibody and wells containing both HTRF antibodies and lysis buffer without cells or control lysate provided by Cisbio. HTRF ratio was calculated as (acceptor signal at 665 nm/donor signal at 620 nm)×10^4. Background HTRF levels were determined from the control well containing the donor, but no acceptor, antibody. Background HTRF levels were subtracted from all samples. Readouts were reported as HTRF levels relative to HTRF levels of DMSO-treated cells. Four-parameter non-linear regressions were performed in GraphPad Prism 7.02 to obtain DC50 values.
BTK Degradation (Total BTK HTRF) at Four Hours in Mino Cells
This example evaluates the potency of CTMs in a model of Mantle Cell Lymphoma (MCL). To evaluate potential therapeutic indications, BTK CTMs were assayed in models of Mantle Cell Lymphoma as with the TMD8 cells (ABC-DLBCL) above. Tested CTMs had similar potencies for BTK degradation in the MCL cell lines (Mino and Rec-1) and TMD8 cells.

[4] = PK data for BTK CTMs (in vivo plasma concentrations); conditions: for Vd: read-out: Volume of Distribution
Excerpt: The present example evaluates in vivo plasma concentrations of BTK CTMs to develop PK-PD-efficacy relationship and predict human exposure.

[5] = Compound plasma exposure in cyno DRF study; format: in vivo; conditions: cynomolgus monkey, po
[6] = biological target: T1, Ikaros (Homo sapiens, UniProt Q13422+Q96SW2); assay: Ikaros degradation in Mantle Cell Lymphoma lines (flow cytometry); format: cell-based; conditions: treatment time 24 h
T1 construct: endogenous in cells; host or cells: Mino, Rec-1
T1 sequence (Q13422 whole entry): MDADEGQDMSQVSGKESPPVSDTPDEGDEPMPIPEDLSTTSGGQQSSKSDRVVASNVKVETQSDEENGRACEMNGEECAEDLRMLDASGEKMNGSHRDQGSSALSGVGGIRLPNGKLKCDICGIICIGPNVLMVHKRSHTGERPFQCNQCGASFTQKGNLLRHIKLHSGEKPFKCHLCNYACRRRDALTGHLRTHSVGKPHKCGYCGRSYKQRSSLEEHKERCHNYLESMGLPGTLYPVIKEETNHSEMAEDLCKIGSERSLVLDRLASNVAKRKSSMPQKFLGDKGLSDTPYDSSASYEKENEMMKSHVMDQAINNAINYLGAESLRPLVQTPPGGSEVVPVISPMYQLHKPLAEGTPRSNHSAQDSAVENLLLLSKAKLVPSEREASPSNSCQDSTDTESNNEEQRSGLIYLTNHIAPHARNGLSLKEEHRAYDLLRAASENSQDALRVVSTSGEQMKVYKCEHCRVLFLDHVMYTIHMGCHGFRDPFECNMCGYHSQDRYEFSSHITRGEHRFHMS
T1 sequence (Q96SW2 whole entry): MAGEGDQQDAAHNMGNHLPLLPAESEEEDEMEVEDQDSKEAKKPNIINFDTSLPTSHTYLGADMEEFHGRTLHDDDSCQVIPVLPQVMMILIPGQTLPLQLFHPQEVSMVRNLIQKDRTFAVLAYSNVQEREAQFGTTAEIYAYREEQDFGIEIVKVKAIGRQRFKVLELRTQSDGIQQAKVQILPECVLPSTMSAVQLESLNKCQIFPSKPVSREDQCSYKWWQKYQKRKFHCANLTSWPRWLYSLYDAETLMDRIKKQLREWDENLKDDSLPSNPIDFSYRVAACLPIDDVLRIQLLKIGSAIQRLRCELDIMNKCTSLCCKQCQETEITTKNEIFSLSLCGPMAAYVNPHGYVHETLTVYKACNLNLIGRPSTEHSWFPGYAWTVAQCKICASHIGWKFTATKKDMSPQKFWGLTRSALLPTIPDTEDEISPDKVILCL
T1 sequence (Q16531 whole entry partner): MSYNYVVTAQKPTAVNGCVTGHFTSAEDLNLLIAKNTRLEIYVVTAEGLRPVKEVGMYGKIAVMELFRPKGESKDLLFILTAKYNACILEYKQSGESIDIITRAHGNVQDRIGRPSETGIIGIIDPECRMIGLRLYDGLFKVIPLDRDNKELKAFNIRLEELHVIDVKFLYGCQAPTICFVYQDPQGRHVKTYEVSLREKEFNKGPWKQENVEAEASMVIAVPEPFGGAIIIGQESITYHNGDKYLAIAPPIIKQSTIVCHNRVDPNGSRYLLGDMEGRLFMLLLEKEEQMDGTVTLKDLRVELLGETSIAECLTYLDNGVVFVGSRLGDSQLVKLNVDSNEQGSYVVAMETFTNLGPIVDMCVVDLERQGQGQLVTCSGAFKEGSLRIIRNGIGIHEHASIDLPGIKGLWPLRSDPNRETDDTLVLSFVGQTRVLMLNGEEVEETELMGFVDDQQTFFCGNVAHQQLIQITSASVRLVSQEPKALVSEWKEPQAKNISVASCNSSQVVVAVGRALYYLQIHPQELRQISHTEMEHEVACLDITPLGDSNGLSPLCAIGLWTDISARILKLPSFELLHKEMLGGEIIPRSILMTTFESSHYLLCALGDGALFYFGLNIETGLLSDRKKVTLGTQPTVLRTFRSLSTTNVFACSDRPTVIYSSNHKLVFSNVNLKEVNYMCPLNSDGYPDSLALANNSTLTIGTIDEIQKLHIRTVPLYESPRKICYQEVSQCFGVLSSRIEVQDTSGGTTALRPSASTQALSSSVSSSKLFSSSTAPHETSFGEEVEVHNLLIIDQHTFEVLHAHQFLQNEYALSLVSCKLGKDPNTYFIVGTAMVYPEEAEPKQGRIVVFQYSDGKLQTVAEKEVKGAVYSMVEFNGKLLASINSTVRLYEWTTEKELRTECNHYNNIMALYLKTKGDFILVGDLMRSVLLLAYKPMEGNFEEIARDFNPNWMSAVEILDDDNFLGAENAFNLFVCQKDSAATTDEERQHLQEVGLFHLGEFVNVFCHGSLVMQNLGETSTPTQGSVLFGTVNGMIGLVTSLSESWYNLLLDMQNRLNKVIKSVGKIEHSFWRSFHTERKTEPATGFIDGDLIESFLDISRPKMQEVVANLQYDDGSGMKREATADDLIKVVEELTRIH
Excerpt: Ikaros and Aiolos Degradation in Mantle Cell Lymphoma Lines (Ikaros and Aiolos Flow Cytometry)
This example evaluates the IMiD activity of CTMs in cellular models of Mantle Cell Lymphoma (MCL). […] These assays are to determine potency of CTMs for degrading IMiD neo-substrates in cellular models of MCL and to generate data to inform efficacy studies in MCL xenografts.

[7] = system: TMD8 BTK C481S tumor cells; assay: TMD8 BTK C481S xenograft efficacy study; format: in vivo, mouse; conditions: PO
Protocol: […] Tumor growth inhibition (% TGI) were calculated on the final day of measurement using the equation [1−(T−T0/C−T0)]×100, where T and C represent the mean size of tumors in the treated (T) and control (C) groups, and T0 refers to the tumor size at randomization.
This example examines the activity of various BTK CTMs in relevant disease models, including the WT and C481S TMD8 model, which models B cell malignancies with/without inhibitor-driven BTK mutations at C481.

[8] = system: CRBN neo-substrates; assay: CRBN neo-substrate levels / IMiD activity in MOLT4 and TMD8 cells (FIGS. 10-12); format: cell-based; conditions: for effect on CRBN neo-substrate levels in cells: MOLT4 and TMD8 cells, FIGS. 11A and 11B; for effects on CRBN neo-substrate levels: after twenty-four hours, TMD8 and/or MOLT4 cells, FIGS. 10A and 10B
Excerpt: FIGS. 10A and 10B provide effects of compounds 73, 72, 121, and 44, and control compounds, on neo-substrate and ITK or BTK levels after twenty-four hours in MOLT4 cells (FIG. 10A) and TMD8 cells (FIG. 10B).
FIGS. 11A and 11B provide effects of compounds 44, 72, and 149, and control compounds, on CRBN neo-substrate and ITK levels in MOLT4 cells (FIG. 11A) and TMD8 cells (FIG. 11B).
FIG. 12 provides effects of compounds 130, 149, and 44 on ITK levels and IMiD activity.

[9] = 10 mg/kg, 10 mg/kg PO, 1 day of dosing
[10] = 30 mg/kg, 30 mg/kg PO, 1 day of dosing
[11] = 100 mg/kg, 100 mg/kg PO, 1 day of dosing
[12] = 100 mg/kg, 100 mg/kg PO, 14 days of dosing
[13] = 30 mg/kg, QD, 23 days of dosing
[14] = Rat Sprague-Dawley, 10 mg/kg PO

In the case of `CN1CCN([C@@H]2CCCN(c3cnc(C(N)=O)c(Nc4ccc(C5CCN(C[C@H]6CCN(c7ccc8c(c7)C(=O)N(C7CCC(=O)NC7=O)C8=O)C6)CC5)cc4)n3)C2)C1=O` (stereo partly shown) [Compound 44], the EC50 [1] is reported as 8.1 nM, the “EMAX (% viable cells)” value [1] is reported as 25% and the EC50 [2] is reported as 3.73 nM. For the same compound, the “EMAX (% viable cells)” value [2] was 15%, the DC50 [3] was 0.56 nM and the AUC ([4]; Mouse Balb/c, 1 mg/kg IV) was 4070 nM·h. For the same compound, the clearance ([4]; Mouse Balb/c, 1 mg/kg IV) was 0.306 L/h/kg, the Vd ([4]; Mouse Balb/c, 1 mg/kg IV) was 0.69 L/kg and the AUC ([4]; Mouse Balb/c, 10 mg/kg PO) was 4000 nM·h. The bioavailability ([4]; Mouse Balb/c, 10 mg/kg PO) was 10%, the AUC [5, 9] was 148 nM·h and the AUC [5, 10] was 268 nM·h. It also gave a Cmax [5, 11] of 0.0226 µM, an AUC [5, 12] of 1520 nM·h and a DC50 ([6]; Mino cells) of 1400 nM. The DC50 ([6]; Rec-1 cells) was 72 nM, the “Tumor Growth Inhibition (relative to vehicle)” value ([7]; 5 mg/kg, BID, 23 days of dosing) was 65% and the “Tumor Growth Inhibition (relative to vehicle)” value ([7]; 15 mg/kg, BID, 23 days of dosing) was 62%. For the same compound, the “Tumor Growth Inhibition (relative to vehicle)” value ([7]; 30 mg/kg, BID, 23 days of dosing) was 70% and 78%, the “Tumor Growth Inhibition (relative to vehicle)” value [7, 13] was 48% and 51% and 36% and the “Tumor Growth Inhibition (relative to vehicle)” value ([7]; 60 mg/kg, QD, 23 days of dosing) was 70%. The “effect on CRBN neo-substrate levels in cells” value [8] was “some effect” and the “effects on CRBN neo-substrate levels” value [8] was “some effects”.
For `NC(=O)c1ncc(N2CCCCC2)nc1Nc1ccc(C2CCN(C[C@@H]3CCN(c4ccc5c(c4)C(=O)N(C4CCC(=O)NC4=O)C5=O)C3)CC2)cc1` (stereo partly shown) [Compound 149], the EC50 [1] was 37.2 nM, the “EMAX (% viable cells)” value [1] was 18% and the EC50 [2] was 9.62 nM. For the same compound, the “EMAX (% viable cells)” value [2] was 7%, the DC50 [3] was 5.9 nM and the AUC ([4]; Dog Beagle, 1 mg/kg IV) was 1200 nM·h. It also gave a clearance ([4]; Dog Beagle, 1 mg/kg IV) of 1.1 L/h/kg, a Vd ([4]; Dog Beagle, 1 mg/kg IV) of 7 L/kg and an AUC ([4]; Dog Beagle, 10 mg/kg PO) of 110 nM·h. It also gave a bioavailability ([4]; Dog Beagle, 10 mg/kg PO) of 0.9%, an AUC ([4]; Monkey cynomolgus, 1 mg/kg IV) of 1000 nM·h and a clearance ([4]; Monkey cynomolgus, 1 mg/kg IV) of 1.33 L/h/kg. It also gave a Vd ([4]; Monkey cynomolgus, 1 mg/kg IV) of 7.5 L/kg, an AUC ([4]; Monkey cynomolgus, 10 mg/kg PO) of 90 nM·h and a bioavailability ([4]; Monkey cynomolgus, 10 mg/kg PO) of 0.8%. The AUC ([4]; Monkey cynomolgus, 30 mg/kg PO) was 80 nM·h, the AUC ([4]; Mouse Balb/c, 1 mg/kg IV) was 4500 nM·h and the clearance ([4]; Mouse Balb/c, 1 mg/kg IV) was 0.312 L/h/kg. For the same compound, the Vd ([4]; Mouse Balb/c, 1 mg/kg IV) was 1 L/kg, the AUC ([4]; Mouse Balb/c, 10 mg/kg PO) was 16000 nM·h and the bioavailability ([4]; Mouse Balb/c, 10 mg/kg PO) was 35%. The AUC ([4]; Mouse Balb/c, 30 mg/kg PO) was 27700 nM·h, the bioavailability ([4]; Mouse Balb/c, 30 mg/kg PO) was 1% and the AUC ([4]; Mouse Balb/c, 90 mg/kg PO) was 37500 nM·h. For the same compound, the bioavailability ([4]; Mouse Balb/c, 90 mg/kg PO) was 1%, the AUC ([4]; Mouse CD-1, 1 mg/kg IV) was 1800 nM·h and the clearance ([4]; Mouse CD-1, 1 mg/kg IV) was 0.756 L/h/kg. It also gave a Vd ([4]; Mouse CD-1, 1 mg/kg IV) of 1.5 L/kg, an AUC ([4]; Mouse CD-1, 10 mg/kg PO) of 11500 nM·h and a bioavailability ([4]; Mouse CD-1, 10 mg/kg PO) of 64%. The AUC ([4]; Rat Sprague-Dawley, 1 mg/kg IV) was 1200 nM·h, the clearance ([4]; Rat Sprague-Dawley, 1 mg/kg IV) was 1.14 L/h/kg and the Vd ([4]; Rat Sprague-Dawley, 1 mg/kg IV) was 2.8 L/kg. For the same compound, the AUC [4, 14] was 880 nM·h, the bioavailability [4, 14] was 7% and the AUC [5, 9] was 386 nM·h. It also gave an AUC [5, 10] of 720 nM·h, a Cmax [5, 11] of 0.076 µM and an AUC [5, 12] of 2660 nM·h. For the same compound, the DC50 ([6]; Mino cells) was 130 nM, the DC50 ([6]; Rec-1 cells) was 61 nM and the “Tumor Growth Inhibition (relative to vehicle)” value ([7]; 10 mg/kg, QD, 23 days of dosing) was 27%. For the same compound, the “Tumor Growth Inhibition (relative to vehicle)” value ([7]; 10 mg/kg, QD, 24 days of dosing) was 17%, the “Tumor Growth Inhibition (relative to vehicle)” value [7, 13] was 29% and the “Tumor Growth Inhibition (relative to vehicle)” value ([7]; 30 mg/kg, QD, 24 days of dosing) was 43%. The “Tumor Growth Inhibition (relative to vehicle)” value ([7]; 90 mg/kg, QD, 24 days of dosing) was 59% and the “effect on CRBN neo-substrate levels in cells” value [8] was “some effect”.
In the case of `CN1CCN([C@@H]2CCCN(c3cnc(C(N)=O)c(Nc4ccc(C5CCN(CC6CCN(c7ccc8c(=O)n(C9CCC(=O)NC9=O)ccc8c7)CC6)CC5)cc4)n3)C2)C1=O` (stereo partly shown) [Compound 72], the EC50 [1] is reported as 1.16 nM, the “EMAX (% viable cells)” value [1] is reported as 21% and the EC50 [2] is reported as 0.429 nM. The “EMAX (% viable cells)” value [2] was 26%, the AUC ([4]; Mouse Balb/c, 1 mg/kg IV) was 3960 nM·h and the clearance ([4]; Mouse Balb/c, 1 mg/kg IV) was 0.306 L/h/kg. It also gave a Vd ([4]; Mouse Balb/c, 1 mg/kg IV) of 0.68 L/kg, an AUC ([4]; Mouse Balb/c, 10 mg/kg PO) of 2900 nM·h and a bioavailability ([4]; Mouse Balb/c, 10 mg/kg PO) of 7%. For the same compound, the IMiD activity ([8]; FIG. 12) was “did not have IMiD activity” and the “effects on CRBN neo-substrate levels” value [8] was “does not effect”.
For `CN1CCN([C@@H]2CCCN(c3cnc(C(N)=O)c(Nc4ccc(C5CCN(CC6CCN(c7ccc(-c8nn(C9CCC(=O)NC9=O)c(=O)n8C)cc7)CC6)CC5)cc4)n3)C2)C1=O` (stereo partly shown) [Compound 121], the EC50 [1] was 4.94 nM, the “EMAX (% viable cells)” value [1] was 31% and the EC50 [2] was 1.54 nM. The “EMAX (% viable cells)” value [2] was 28%, the AUC ([4]; Mouse Balb/c, 1 mg/kg IV) was 2870 nM·h and the clearance ([4]; Mouse Balb/c, 1 mg/kg IV) was 0.396 L/h/kg. The Vd ([4]; Mouse Balb/c, 1 mg/kg IV) was 0.77 L/kg, the AUC ([4]; Mouse Balb/c, 30 mg/kg PO) was 2220 nM·h and the bioavailability ([4]; Mouse Balb/c, 30 mg/kg PO) was 11%. For the same compound, the AUC ([4]; Rat Sprague-Dawley, 1 mg/kg IV) was 919 nM·h, the clearance ([4]; Rat Sprague-Dawley, 1 mg/kg IV) was 1.2 L/h/kg and the Vd ([4]; Rat Sprague-Dawley, 1 mg/kg IV) was 3.12 L/kg. It also gave an AUC [4, 14] of 83 nM·h, a bioavailability [4, 14] of 1% and an AUC ([4]; Rat Sprague-Dawley, 30 mg/kg PO) of 730 nM·h. For the same compound, the “effects on CRBN neo-substrate levels” value [8] was “minimal effects”.

From patent US12600732B2, “Bifunctional compounds for degrading BTK via ubiquitin proteosome pathway” (NURIX THERAPEUTICS, INC., priority 2019, dated 2026)
